Laboratory results taken from EP4656185A1, “NOVEL MOLECULAR ASSEMBLY OF AXITINIB” (Scai Therapeutics Co., Ltd., priority 2024, dated 2025).

Experiment: Solubility (dissolution concentration) of axitinib polymorph at pH 1 and pH 2
Assay type: physicochemical
Description: Experimental Example 4. Solubility of new axitinib polymorph (SCAI-Form)
Method for measuring solubility at pH 1: Stirred for 15 minutes at a concentration of 5 mg/mL, and then filtered, diluted 10 times with DW, and analyzed. (The value calculated as [measured value x 10] is described in the results)
Method for measuring solubility at pH 2: Stirred for 15 minutes at a concentration of 1 mg/mL, and then filtered, analyzed, and shown in Table 6.

| solubility of SCAI-Form relative to API (comparison with Axitinib API, from Table 6 (pH 1 and pH 2)) | Compound | Dissolution concentration at pH 1 (pH 1, stirred for 15 minutes at 5 mg/mL, filtered, diluted 10 times with DW, value = measured value x 10) [mg/mL] | Dissolution concentration at pH 2 (pH 2, stirred for 15 minutes at 1 mg/mL, filtered, analyzed) [mg/mL] |
| --- | --- | --- | --- |
| – | 6-[2-(methylcarbamoyl)phenylsulfanyl]-3-E-[2-(pyridin-2-yl)ethenyl]indazole [API] | 2.661 | 0.073 |
| about twice higher | CNC(=O)c1ccccc1Sc1ccc2c(/C=C/c3ccccn3)n[nH]c2c1 [SCAI-Form, axitinib] | – | – |
